Assay results taken from patent publication US6420401B1, “1,2,5, thiadiazolidin-3-one 1,1-dioxide derivatives” (Wichita State University, priority 1997, dated 2002).

These molecules were tested against T1, human leukocyte elastase (HLE) (Homo sapiens, UniProt P08246) (assay: Inactivation of human leukocyte elastase, progress curve method). Conditions: Table 5, sulfonamides 31-49; apparent second-order rate constant.
T1 sequence (P08246 30-267): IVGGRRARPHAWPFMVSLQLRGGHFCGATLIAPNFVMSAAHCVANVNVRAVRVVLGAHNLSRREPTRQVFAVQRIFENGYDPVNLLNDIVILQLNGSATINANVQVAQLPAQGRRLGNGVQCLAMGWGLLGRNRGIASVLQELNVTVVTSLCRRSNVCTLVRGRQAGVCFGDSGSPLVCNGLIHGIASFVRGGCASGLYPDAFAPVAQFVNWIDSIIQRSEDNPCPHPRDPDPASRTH
Format: biochemical
Procedure: (§1) Absorbance was recorded at 410 nm for reaction solutions containing 20.0 nM HLE, 1.00 mM MeOSuc-Ala-Ala-Pro-Val p-nitroanilide, and the indicated concentrations of inhibitor in 0.1 M HEPES buffer, pH 7.25, and 3.6% dimethyl sulfoxide. The temperature was maintained at 25° C., and the reactions were initiated by the addition of enzyme.
as §1, with “(Table 4). Absorbance” for “Absorbance”, “monitored” for “recorded”
(§2) An in vitro assay was used to screen compounds of the invention for the ability to reduce or inhibit serine protease activity. The human leukocyte elastase (HLE), cathepsin G (Cat G) and proteinase 3 (PR 3) assays have each been described in detail, Groutas et al. (1997) Biochemistry 36, 4739-4750. Chymase was assayed using N-succinyl Ala-Ala-Pro-Phe p-nitroanilide and 0.45 M Tris buffer/1.8 M NaCl, pH 8.03, Schechter, N. M. et al. (1993) J. Biol. Chem. 268, 23626-23633.
(§3) The rates of inactivation of HLE, Cat G or PR3 by each compound (or library of compounds) were determined by the progress curve method [Morrison, J. F. & Walsh, C. T. (1988) Adv. Enzymol. 61, 201-301]. Typical progress curves using a representative sulfonamide or heterocyclic sulfide inhibitor are illustrated in FIGS. 1 and 2, respectively. The apparent second-order rate constants kinact/kI M^−1 s^−1, the magnitude of which serves as an index of inhibitory potency, were determined by the progress curve method and are listed in Table 5 (sulfonamides), Table 6 (heterocyclic sulfides), Table 3 (oxa acids) , Tables 7 & 8 (libraries 1-30), and Table 9 (reversible inhibitors).
A kinact/KI of 11900 M⁻¹ s⁻¹ was found for `CC(C)COC(=O)N(CN1C(=O)C(CC(C)C)N(C)S1(=O)=O)S(C)(=O)=O` (centres unmarked) [Compound 31] in this work.
A kinact/KI of 40500 M⁻¹ s⁻¹ was found for `CCCCOC(=O)N(CN1C(=O)C(CC(C)C)N(C)S1(=O)=O)S(C)(=O)=O` (centres unmarked) [Compound 32] in this work.
A kinact/KI of 22000 M⁻¹ s⁻¹ was found for `CC(C)CC1C(=O)N(CN(C(=O)OCc2ccccc2)S(C)(=O)=O)S(=O)(=O)N1C` (centres unmarked) [Compound 33] in this work.
A kinact/KI of 1970 M⁻¹ s⁻¹ was found for `CCCCOC(=O)N(CN1C(=O)C(Cc2ccccc2)N(Cc2ccccc2)S1(=O)=O)S(C)(=O)=O` (centres unmarked) [Compound 38] in this work.
A kinact/KI of 71000 M⁻¹ s⁻¹ was found for `CC(C)CC1C(=O)N(CN(C(=O)c2ccccc2)S(C)(=O)=O)S(=O)(=O)N1C` (centres unmarked) [Compound 39] in this work.
A kinact/KI of 28300 M⁻¹ s⁻¹ was found for `CC(C)CC1C(=O)N(CN(C(=O)Cc2ccccc2)S(C)(=O)=O)S(=O)(=O)N1C` (centres unmarked) [Compound 40] in this work.
A kinact/KI of 140000 M⁻¹ s⁻¹ was found for `CC(C)CC1C(=O)N(CN(C(=O)CNC(=O)OC(C)(C)C)S(C)(=O)=O)S(=O)(=O)N1C` (centres unmarked) [Compound 42] in this work.
A kinact/KI of 229000 M⁻¹ s⁻¹ was found for `CC(C)CC1C(=O)N(CN(C(=O)CNC(=O)OCc2ccccc2)S(C)(=O)=O)S(=O)(=O)N1C` (centres unmarked) [Compound 43] in this work.
A kinact/KI of 149000 M⁻¹ s⁻¹ was found for `CC(C)CC1C(=O)N(CN(C(=O)CNC(=O)OC(C)(C)C)S(C)(=O)=O)S(=O)(=O)N1Cc1ccccc1` (centres unmarked) [Compound 44] in this work.
A kinact/KI of 134000 M⁻¹ s⁻¹ was found for `CC(C)CC1C(=O)N(CN(C(=O)CNC(=O)OCc2ccccc2)S(C)(=O)=O)S(=O)(=O)N1Cc1ccccc1` (centres unmarked) [Compound 45] in this work.
A kinact/KI of 14100 M⁻¹ s⁻¹ was found for `CCOC(=O)CNC(=O)N(CN1C(=O)C(CC(C)C)N(Cc2ccccc2)S1(=O)=O)S(C)(=O)=O` (centres unmarked) [Compound 48] in this work.
A kinact/KI of 850 M⁻¹ s⁻¹ was found for `CC(C)CC1C(=O)N(CN2C(=O)C(CC(C)C)N(Cc3ccccc3)S2(=O)=O)S(=O)(=O)N1Cc1ccccc1` (centres unmarked) [Compound 49] in this work.

Same assay, conditions: Table 6, heterocyclic sulfides 53-69
A kinact/KI of 153000 M⁻¹ s⁻¹ was found for `CC(C)CC1C(=O)N(CSc2nc(-c3ccccc3)no2)S(=O)(=O)N1C` (centres unmarked) [Compound 53] in this work.
A kinact/KI of 67300 M⁻¹ s⁻¹ was found for `CC(C)CC1C(=O)N(CSc2nc3ccccc3s2)S(=O)(=O)N1C` (centres unmarked) [Compound 54] in this work.
A kinact/KI of 174000 M⁻¹ s⁻¹ was found for `CC(C)CC1C(=O)N(CSc2nc3ccccc3o2)S(=O)(=O)N1Cc1ccccc1` (centres unmarked) [Compound 55] in this work.
A kinact/KI of 560 M⁻¹ s⁻¹ was found for `CC(C)CC1C(=O)N(CSc2nc(-c3ccccc3)c(-c3ccccc3)o2)S(=O)(=O)N1Cc1ccccc1` (centres unmarked) [Compound 56] in this work.
A kinact/KI of 80600 M⁻¹ s⁻¹ was found for `CC(C)CC1C(=O)N(CSc2nc3ccccc3o2)S(=O)(=O)N1C` (centres unmarked) [Compound 57] in this work.
A kinact/KI of 168000 M⁻¹ s⁻¹ was found for `CC(C)CC1C(=O)N(CSc2nnc(-c3ccccc3)o2)S(=O)(=O)N1Cc1ccccc1` (centres unmarked) [Compound 58] in this work.
A kinact/KI of 22400 M⁻¹ s⁻¹ was found for `CC(C)CC1C(=O)N(CSc2nc3ccccc3s2)S(=O)(=O)N1Cc1ccccc1` (centres unmarked) [Compound 59] in this work.
A kinact/KI of 1540 M⁻¹ s⁻¹ was found for `CC(C)CC1C(=O)N(CSc2nc(-c3ccccc3)c(-c3ccccc3)o2)S(=O)(=O)N1C` (centres unmarked) [Compound 60] in this work.
A kinact/KI of 25300 M⁻¹ s⁻¹ was found for `CC(C)CC1C(=O)N(CSc2nnc(-c3ccccc3)o2)S(=O)(=O)N1C` (centres unmarked) [Compound 61] in this work.
A kinact/KI of 67800 M⁻¹ s⁻¹ was found for `CC(C)CC1C(=O)N(CSc2nc(-c3ccccc3)no2)S(=O)(=O)N1Cc1ccccc1` (centres unmarked) [Compound 62] in this work.
A kinact/KI of 22600 M⁻¹ s⁻¹ was found for `CC(C)CC1C(=O)N(CSc2nc3cc(-c4ccccc4)ccc3o2)S(=O)(=O)N1C` (centres unmarked) [Compound 63] in this work.
With `CC(C)CC1C(=O)N(CSc2nc3cc(-c4ccccc4)ccc3o2)S(=O)(=O)N1Cc1ccccc1` (centres unmarked) [Compound 64] the “kinact/KI HLE” value was “inactive”.
`CN1C(Cc2ccccc2)C(=O)N(CSc2nnc(-c3ccccc3)o2)S1(=O)=O` (centres unmarked) [Compound 65] was tested, and the “kinact/KI HLE” value was “inactive”.

These molecules were tested against T2, Human Leukocyte Proteinase 3 (PR 3) (Homo sapiens, UniProt P24158) (assay: Inactivation of proteinase 3, progress curve method). Conditions: Table 5, sulfonamides 31-49.
T2 sequence (P24158 28-248): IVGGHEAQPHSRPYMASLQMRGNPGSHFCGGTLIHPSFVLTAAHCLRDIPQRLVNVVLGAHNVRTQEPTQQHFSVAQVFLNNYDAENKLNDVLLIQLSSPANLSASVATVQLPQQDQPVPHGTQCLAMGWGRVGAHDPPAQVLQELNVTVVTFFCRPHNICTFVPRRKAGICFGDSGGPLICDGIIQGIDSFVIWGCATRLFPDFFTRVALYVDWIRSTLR
Format: biochemical
Procedure: as §2, §3
A kinact/KI of 10100 M⁻¹ s⁻¹ was found for `CC(C)CC1C(=O)N(CN(C(=O)Cc2ccccc2)S(C)(=O)=O)S(=O)(=O)N1C` (centres unmarked) [Compound 40] in this work.
A kinact/KI of 27400 M⁻¹ s⁻¹ was found for `CC(C)CC1C(=O)N(CN(C(=O)CNC(=O)OC(C)(C)C)S(C)(=O)=O)S(=O)(=O)N1C` (centres unmarked) [Compound 42] in this work.
A kinact/KI of 27400 M⁻¹ s⁻¹ was found for `CC(C)CC1C(=O)N(CN(C(=O)CNC(=O)OCc2ccccc2)S(C)(=O)=O)S(=O)(=O)N1C` (centres unmarked) [Compound 43] in this work.
A kinact/KI of 30100 M⁻¹ s⁻¹ was found for `CC(C)CC1C(=O)N(CN(C(=O)CNC(=O)OCc2ccccc2)S(C)(=O)=O)S(=O)(=O)N1Cc1ccccc1` (centres unmarked) [Compound 45] in this work.
A kinact/KI of 5190 M⁻¹ s⁻¹ was found for `CCOC(=O)CNC(=O)N(CN1C(=O)C(CC(C)C)N(Cc2ccccc2)S1(=O)=O)S(C)(=O)=O` (centres unmarked) [Compound 48] in this work.

Same assay, conditions: Table 6, heterocyclic sulfides 53-69
A kinact/KI of 9130 M⁻¹ s⁻¹ was found for `CC(C)CC1C(=O)N(CSc2nc3ccccc3o2)S(=O)(=O)N1Cc1ccccc1` (centres unmarked) [Compound 55] in this work.
A kinact/KI of 10400 M⁻¹ s⁻¹ was found for `CC(C)CC1C(=O)N(CSc2nc3ccccc3o2)S(=O)(=O)N1C` (centres unmarked) [Compound 57] in this work.
A kinact/KI of 1090 M⁻¹ s⁻¹ was found for `CC(C)CC1C(=O)N(CSc2nc3cc(-c4ccccc4)ccc3o2)S(=O)(=O)N1Cc1ccccc1` (centres unmarked) [Compound 64] in this work.

Each molecule was assayed against T3, human leukocyte cathepsin G (Cat G) (Homo sapiens, UniProt P08311) (assay: Inactivation of cathepsin G, progress curve method). Conditions: Table 5, sulfonamides 31-49.
T3 sequence (P08311 21-244): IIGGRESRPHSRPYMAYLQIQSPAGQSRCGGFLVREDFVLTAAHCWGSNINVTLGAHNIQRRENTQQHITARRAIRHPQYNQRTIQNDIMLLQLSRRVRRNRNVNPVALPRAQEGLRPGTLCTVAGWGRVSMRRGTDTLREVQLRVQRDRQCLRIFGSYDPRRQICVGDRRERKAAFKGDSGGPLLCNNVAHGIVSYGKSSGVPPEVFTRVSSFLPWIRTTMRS
Format: biochemical
Procedure: as §2, §3
A solution of (L)-4,5-dibenzyl-1,2,5-thiadiazolidin-3-one 1,1 dioxide (0.5 g; 1.58 mmol) and ethyl α-bromofluoroacetate (0.44 g; 2.37 mmol) in dry dimethyl formamide (3 mL) was treated with 60% sodium hydride ([…]; 1.58 mmol). The reaction mixture was kept at 55° C. for 1 h using a water bath. The solvent was removed in vacuo and the product was dissolved in ethyl acetate (35 mL) and washed with water (3×10 mL), 5% sodium bicarbonate (2×10 mL) and dried over anhydrous sodium sulfate. Evaporation of the solvent yielded a crude product (0.56 g) which was purified by flash chromatography using silica gel and a hexane/methylene chloride gradient. The product K-1a (0.15 g; 25% yield) was screened against human leukocyte cathepsin G using the progress curve method (kinact/Ki>10,000 M^−1 s^−1). [drawing 45] [drawing 46] [drawing 47] [drawing 48] [drawing 49]
A kinact/KI of 5380 M⁻¹ s⁻¹ was found for `CCCCOC(=O)N(CN1C(=O)C(Cc2ccccc2)N(Cc2ccccc2)S1(=O)=O)S(C)(=O)=O` (centres unmarked) [Compound 38] in this work.
A kinact/KI of 220 M⁻¹ s⁻¹ was found for `CC(C)CC1C(=O)N(CN(C(=O)Cc2ccccc2)S(C)(=O)=O)S(=O)(=O)N1C` (centres unmarked) [Compound 40] in this work.
A kinact/KI of 60 M⁻¹ s⁻¹ was found for `CC(C)CC1C(=O)N(CN(C(=O)CNC(=O)OCc2ccccc2)S(C)(=O)=O)S(=O)(=O)N1C` (centres unmarked) [Compound 43] in this work.
A kinact/KI of 70 M⁻¹ s⁻¹ was found for `CC(C)CC1C(=O)N(CN(C(=O)CNC(=O)OCc2ccccc2)S(C)(=O)=O)S(=O)(=O)N1Cc1ccccc1` (centres unmarked) [Compound 45] in this work.
A kinact/KI of 70 M⁻¹ s⁻¹ was found for `CCOC(=O)CNC(=O)N(CN1C(=O)C(CC(C)C)N(Cc2ccccc2)S1(=O)=O)S(C)(=O)=O` (centres unmarked) [Compound 48] in this work.

Same assay, conditions: Table 6, heterocyclic sulfides 53-69
A kinact/KI of 60 M⁻¹ s⁻¹ was found for `CC(C)CC1C(=O)N(CSc2nc3ccccc3o2)S(=O)(=O)N1Cc1ccccc1` (centres unmarked) [Compound 55] in this work.
A kinact/KI of 30 M⁻¹ s⁻¹ was found for `CC(C)CC1C(=O)N(CSc2nc3ccccc3o2)S(=O)(=O)N1C` (centres unmarked) [Compound 57] in this work.
A kinact/KI of 50 M⁻¹ s⁻¹ was found for `CC(C)CC1C(=O)N(CSc2nc3cc(-c4ccccc4)ccc3o2)S(=O)(=O)N1Cc1ccccc1` (centres unmarked) [Compound 64] in this work.
A kinact/KI of 490 M⁻¹ s⁻¹ was found for `CN1C(Cc2ccccc2)C(=O)N(CSc2nnc(-c3ccccc3)o2)S1(=O)=O` (centres unmarked) [Compound 65] in this work.
A kinact/KI of 430 M⁻¹ s⁻¹ was found for `CN1C(Cc2ccccc2)C(=O)N(CSc2nc3ccccc3o2)S1(=O)=O` (centres unmarked) [Compound 66] in this work.
A kinact/KI of 17100 M⁻¹ s⁻¹ was found for `O=C1C(Cc2ccccc2)N(Cc2ccccc2)S(=O)(=O)N1CSc1nc2ccccc2o1` (centres unmarked) [Compound 67] in this work.
A kinact/KI of 17500 M⁻¹ s⁻¹ was found for `O=C1C(Cc2ccccc2)N(Cc2ccccc2)S(=O)(=O)N1CSc1nnc(-c2ccccc2)o1` (centres unmarked) [Compound 68] in this work.
A kinact/KI of 15700 M⁻¹ s⁻¹ was found for `Nc1ccc2nc(SCN3C(=O)C(Cc4ccccc4)N(Cc4ccccc4)S3(=O)=O)oc2c1` (centres unmarked) [Compound 69] in this work.

Same assay, conditions: human leukocyte cathepsin G, progress curve method
For `CCOC(=O)C(F)N1C(=O)C(Cc2ccccc2)N(Cc2ccccc2)S1(=O)=O` (centres unmarked) [Compound K-1a], the kinact/Ki was > 10,000 M^−1 s^−1.
